Experiments:
[1] = biological target: T1, Ecdysteroid receptor complexes extracted from BII cells (Drosophila melanogaster, UniProt P34021); test: Cell-free receptor assay with receptor complexes extracted from BII cells; type: binding; settings: ratio of Kd in cell-free BII extract to EC50 in BII bioassay
T1 sequence (P34021 1-878): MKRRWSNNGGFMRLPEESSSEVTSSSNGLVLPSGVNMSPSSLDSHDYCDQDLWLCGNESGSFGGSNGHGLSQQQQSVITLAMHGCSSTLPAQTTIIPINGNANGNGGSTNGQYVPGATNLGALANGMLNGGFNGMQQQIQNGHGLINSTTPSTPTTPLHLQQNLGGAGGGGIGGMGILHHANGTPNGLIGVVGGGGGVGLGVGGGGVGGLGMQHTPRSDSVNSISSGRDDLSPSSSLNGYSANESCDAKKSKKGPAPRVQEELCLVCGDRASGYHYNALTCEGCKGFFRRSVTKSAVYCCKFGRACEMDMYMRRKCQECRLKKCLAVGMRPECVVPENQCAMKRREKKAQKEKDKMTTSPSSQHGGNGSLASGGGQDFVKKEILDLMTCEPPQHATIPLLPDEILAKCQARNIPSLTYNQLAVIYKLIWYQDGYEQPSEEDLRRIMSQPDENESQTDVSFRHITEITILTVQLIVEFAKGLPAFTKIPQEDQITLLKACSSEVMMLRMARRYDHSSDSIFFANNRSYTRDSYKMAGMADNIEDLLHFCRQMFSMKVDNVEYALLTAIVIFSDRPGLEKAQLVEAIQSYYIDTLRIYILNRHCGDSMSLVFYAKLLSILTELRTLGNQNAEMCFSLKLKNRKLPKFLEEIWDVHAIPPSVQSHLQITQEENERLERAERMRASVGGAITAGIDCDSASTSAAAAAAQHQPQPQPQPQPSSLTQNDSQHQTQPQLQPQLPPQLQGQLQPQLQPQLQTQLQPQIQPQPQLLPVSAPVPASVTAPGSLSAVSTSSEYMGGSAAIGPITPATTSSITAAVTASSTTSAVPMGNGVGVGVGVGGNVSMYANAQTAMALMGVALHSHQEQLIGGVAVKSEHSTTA
T1 sequence (P20153 1-508 partner): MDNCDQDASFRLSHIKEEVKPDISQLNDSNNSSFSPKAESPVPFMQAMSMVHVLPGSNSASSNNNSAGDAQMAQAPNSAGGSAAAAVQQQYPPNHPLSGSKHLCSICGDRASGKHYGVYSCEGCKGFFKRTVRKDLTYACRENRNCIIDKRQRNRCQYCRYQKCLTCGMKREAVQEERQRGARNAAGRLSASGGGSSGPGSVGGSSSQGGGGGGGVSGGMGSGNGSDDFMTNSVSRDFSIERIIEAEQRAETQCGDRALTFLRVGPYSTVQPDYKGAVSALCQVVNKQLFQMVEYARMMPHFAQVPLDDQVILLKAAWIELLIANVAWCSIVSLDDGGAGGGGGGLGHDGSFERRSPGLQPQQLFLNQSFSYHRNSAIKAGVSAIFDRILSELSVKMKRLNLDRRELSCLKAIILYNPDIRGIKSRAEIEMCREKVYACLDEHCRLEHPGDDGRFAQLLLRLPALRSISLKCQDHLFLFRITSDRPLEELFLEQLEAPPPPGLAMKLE

[2] = test system: insect EcR proteins when expressed in mammalian cells and partnered by RXR; settings: altered ligand specificity and affinity; no reference given; cited from earlier work
[3] = type: physicochemical; settings: after attempted synthesis
[4] = test system: BII cells; settings: ref Dinan, 1985; cited from earlier work

Row | SMILES | Kd/EC50 [1] | further results
1 | CC(C)(O)CC[C@@H](O)[C@](C)(O)[C@H]1CC[C@@]2(O)C3=CC(=O)[C@@H]4C[C@@H](O)[C@@H](O)C[C@]4(C)[C@H]3[C@H](O)C[C@]12C [compound 1, turkesterone] | very low | –
2 | CC(C)CC[C@@H](O)[C@](C)(O)[C@H]1CC[C@@]2(O)C3=CC(=O)[C@@H]4C[C@@H](O)[C@@H](O)C[C@]4(C)[C@H]3[C@H](O)C[C@]12C [compound 8, ajugasterone C] | very low | –
3 | CC(C)CC[C@@H](O)[C@](C)(O)[C@H]1CC[C@@]2(O)C3=CC(=O)[C@]4(O)C[C@@H](O)[C@@H](O)C[C@]4(C)[C@H]3[C@H](O)C[C@]12C [compound 9, muristerone A] | very low | activity with insect EcR/RXR in mammalian cells [2]: active, but micromolar concentrations are required
4 | CC(C)(O)CC[C@@H](O)[C@](C)(O)[C@H]1CC[C@@]2(O)C3=CC(=O)[C@@H]4C[C@@H](O)[C@@H](O)C[C@]4(C)[C@H]3[C@H](OC(=O)c3ccccc3)C[C@]12C [turkesterone 11α-benzoate] | – | stability of product [3]: unstable, degrading rapidly back to turkesterone
5 | CC(C)(O)CC[C@@H](O)[C@](C)(O)[C@H]1CC[C@@]2(O)C3=CC(=O)[C@@H]4C[C@@H](O)[C@@H](O)C[C@]4(C)[C@H]3CC[C@]12C [compound 6, 20-hydroxyecdysone] | – | metabolism by BII cells [4]: do not metabolise

Reference: publication PMC524646 (Journal of Insect Science, 2003)
